According to US20240334932A1, “POLYMORPHS HAVING PESTICIDAL ACTIVITY” (CORTEVA AGRISCIENCE LLC, priority 2021, published 2024):

Assays:
[1] = Dissolution in hexane (anti-solvent); assay type: physicochemical
[2] = system: adult sweet potato whitefly, B. tabaci; assay: Knock-down study, treated glass vial bioassay, hexane anti-solvent experiment (Example 13B); assay type: in vivo; details: for Effect on B. tabaci behavior compared with the amorphous oil: hexane; for Trt Least Squares Means (proportion scale) Mean: proportion of insects above the 2 cm line: hexane anti-solvent suspension, repeated measures 15-180 min, GLMM
Method: In this study, the effect of Compound 1 on the behavior of adult sweet potato whitefly, B. tabaci was evaluated. In general, different forms of Compound 1 (either inventive Polymorph form A, inventive Polymorph form B, or non-crystalline Compound 1, amorphous oil) were applied to the inside of glass vials and adult B. tabaci were transferred into treated vials, exposing them to Compound 1 via contact with the treated glass surface. To quantify the knock-down effect reported previously (Lee et. al. 2013), a line was scribed 2 cm above the bottom of the treated vials and the number of B. tabaci above the 2 cm line were recorded the first three hours following initial exposure. […] This study characterized the effect of Compound 1, Polymorph A and Compound 1, Polymorph B on adult B. tabaci whitefly behavior using a common treated glass vial bioassay to expose the test insects through direct contact (Busvine 1971), and compared those effects in direct head-to-head comparison with non-cystalline Compound 1. Test compounds were either dissolved in acetone (Example 11A) or suspended in a volatile anti-solvent (hexane) (Example 11B), and then evenly coated on the inside of a glass vial using a laboratory-roller. In this experiment, three forms of Compound 1 (Polymorph form A, Polymorph form B, and non-crystalline, amorphous oil) were evaluated for their effect on B. tabaci behavior, polymorph A, polymorph B and an amorphous oil. The samples of Polymorph form A and Polymorph form B were finely milled as described in Example 12. The experimental design of the hexane experiment, including rates (25, 2.5, and 0.25 g/ha), replication (three replications per treatment), and preparation of the treatment suspension was similar to the process described for Example 13A. However, hexane was used instead of acetone. […] Following sonication, samples were again mixed using a vortex mixer immediately before transferring 151 μl of each stock suspension to 11.85 mL of hexane to create the treatment suspension for the 25 g/ha rate (resulting in 0.25 μg/cm^2). The 25 g/ha treatment suspension was serially diluted ten-fold, two times to generate treatment suspensions for the 2.5 and 0.25 g/ha rates. 3 mL of each treatment suspension was transferred into the 11-dram vials and the vials were placed on a laboratory tube roller and rotated at room temperature until the hexane had fully evaporated, leaving an even coating of Compound 1 particles on the inside of the vials. The solvent blank vials were treated with 3 mL of hexane. Following treatment, the vials were stored, infested with approximately 117.4, 47-219 (Mean, min-max) adult B. tabaci, and evaluated as described in the acetone experiment. For each trial and rate, the proportion of insects above the 2 cm line was analyzed with a generalized linear mixed model (GLMM) for repeated measures with binomial response and logit link function (Stroup, 2012). The use of the generalized linear model with binomial distribution for the response, instead of the linear model with normal distribution (ANOVA), allows the correct use of the distributional assumptions and actual sample size (number of insects) used in the experiments. The model included Treatment, Time point, and the interaction Treatment x Time point as fixed effects and the replicate (experimental unit) as random effect. The correlation between repeated measures was modeled with the compound symmetry covariance matrix. The generalized linear mixed models were estimated with the residual pseudo-likelihood method, and the means of the treatment proportions were compared with Tukey's tests (α=0.05) (Stroup 2012). Statistical analyses were performed with SAS Proc GLIMMIX (SAS Software, Version 9.4, SAS Institute Inc., Cary, NC).

[3] = Air milling of polymorphs, PXRD before and after (Example 12); assay type: physicochemical; details: Jet Mill to d(0.5)<6 μm and d(0.9)<15 μm
Method: Compound 1, Polymorph A and Compound 1, Polymorph B samples were air milled separately with Jet Mill until particle size of d (0.5)<6 μm and d (0.9)<15 μm. Powder X-Ray Diffraction (PXRD) was conducted on the samples before and after the air milling process.

[4] = system: adult sweet potato whitefly, B. tabaci; assay: Knock-down study, treated glass vial bioassay, acetone experiment (Example 13A); assay type: in vivo, B. tabaci (Middle East Asia Minor1 (MEAM1) biotype); details: for Effect on B. tabaci behavior compared with the amorphous oil: acetone; for Trt Least Squares Means (proportion scale) Mean: proportion of insects above the 2 cm line: applied from acetone, repeated measures 15-180 min, GLMM
Method: In this study, the effect of Compound 1 on the behavior of adult sweet potato whitefly, B. tabaci was evaluated. In general, different forms of Compound 1 (either inventive Polymorph form A, inventive Polymorph form B, or non-crystalline Compound 1, amorphous oil) were applied to the inside of glass vials and adult B. tabaci were transferred into treated vials, exposing them to Compound 1 via contact with the treated glass surface. To quantify the knock-down effect reported previously (Lee et. al. 2013), a line was scribed 2 cm above the bottom of the treated vials and the number of B. tabaci above the 2 cm line were recorded the first three hours following initial exposure.
This study characterized the effect of Compound 1, Polymorph A and Compound 1, Polymorph B on adult B. tabaci whitefly behavior using a common treated glass vial bioassay to expose the test insects through direct contact (Busvine 1971), and compared those effects in direct head-to-head comparison with non-cystalline Compound 1. Test compounds were either dissolved in acetone (Example 11A) or suspended in a volatile anti-solvent (hexane) (Example 11B), and then evenly coated on the inside of a glass vial using a laboratory-roller.
In this experiment, two forms of Compound 1 (polymorph form B and an amorphous oil) were evaluated for their effect on B. tabaci behavior. Three application rates were evaluated for each form of Compound 1 (25 g/ha, 2.5 g/ha,and 0.25 g/ha), in addition to a solvent blank control. Each treatment and the control were replicated three times. Compound 1 samples were dissolved in acetone and were coated on the inside of a 11-dram screw-top glass vial (Fisherbrand 03-339-21N) (Fisher Scientific, Hampton, NH). […] To treat the vials, a stock solution of each sample was first prepared by dissolving 1 mg of Compound 1 sample (either polymorph form B or an amorphous oil) in 2 ml of acetone. The stock solution was agitated using a laboratory vortex mixer to ensure complete mixture of the solution. 151 μL of each stock solution was added to 11.85 mL of acetone to create the treatment solution for the 25 g/ha rate (resulting in 0.25 μg/cm^2). The 25 g/ha treatment solution was serially diluted ten-fold, two times to generate treatment solutions for the 2.5 and 0.25 g/ha rates. 3 mL of each treatment solution was transferred into the 11-dram vials and the vials were placed on a laboratory tube roller and rotated at room temperature until the acetone had fully evaporated, leaving a coating of Compound 1 on the inside of the vials. The solvent blank vials were treated with 3 mL of acetone. After treatment, the vials were left open in a fume hood overnight at room temperature in preparation for testing the following day. Mixed-sex adult B. tabaci whiteflies (Middle East Asia Minor1 (MEAM1) biotype) were collected from a susceptible colony maintained at Corteva Agriscience (Indianapolis, IN). The adult B. tabaci were anesthetized with CO2 and approximately 66.5, 32-102 (Mean, min-max) were introduced into each of the treated vials and their behavior recorded. To evaluate B. tabaci behavior, a line was scribed 2 cm above the bottom of the vial and the number of individuals above the line were recorded at 15, 30, 45, 60, 90, 120, 150, and 180 min after introduction. Following completion of the experiment, the insects were devitalized by freezing at −30° C. for 72 h after which the total number of insects in each vial was recorded. The percentage of B. tabaci above the 2 cm line was calculated for each rate and was used to graph the effect of Compound 1 on whiteflies over time.
For each trial and rate, the proportion of insects above the 2 cm line was analyzed with a generalized linear mixed model (GLMM) for repeated measures with binomial response and logit link function (Stroup, 2012). […]

**Q.** With CCN(C(=O)CCS(C)(=O)=O)c1sc(-c2cccnc2)nc1Cl [Compound 1, N-[4-chloro-2-(pyridin-3-yl)-1,3-thiazol-5-yl]-N-ethyl-3-(methylsulfonyl) propanamide] as the compound, how does the Solubility in hexane [1] read?
**A.** Its Solubility in hexane is “does not readily dissolve”.

**Q.** Which “Effect on B. tabaci behavior compared with the amorphous oil” value (shortened to “Effect … compared with the amorphous oil”) ([2]; 0.25 g/ha) does the source give for CCN(C(=O)CCS(C)(=O)=O)c1sc(-c2cccnc2)nc1Cl [Polymorph A, N-[4-chloro-2-(pyridin-3-yl)-1,3-thiazol-5-yl]-N-ethyl-3-(methylsulfonyl) propanamide] here?
**A.** The value was “more negatively affected than those exposed to the amorphous oil”.

**Q.** And the “Trt Least Squares Means (proportion scale) Mean: proportion of insects above the 2 cm line” value (“Trt Least Squares Means” below) ([2]; 0.25 g/ha)?
**A.** Its value is 0.342.

**Q.** What about the “Effect … compared with the amorphous oil” value ([2]; 2.5 g/ha) of the same compound?
**A.** Its value is “significantly affected when compared directly to the amorphous oil”.

**Q.** And the “Trt Least Squares Means” value ([2]; 2.5 g/ha)?
**A.** The value was 0.080.

**Q.** And the “Effect … compared with the amorphous oil” value ([2]; 25 g/ha)?
**A.** Its value is “not a difference in the effect”.

**Q.** And the “Trt Least Squares Means” value ([2]; 25 g/ha)?
**A.** The value was 0.015.

**Q.** What about the “Polymorphic form after the air milling process (PXRD)” value [3] of the same compound?
**A.** Its value is “unchanged”.

**Q.** Which “Effect … compared with the amorphous oil” value ([4]; 0.25 g/ha) does the source give for CCN(C(=O)CCS(C)(=O)=O)c1sc(-c2cccnc2)nc1Cl [Polymorph B, N-[4-chloro-2-(pyridin-3-yl)-1,3-thiazol-5-yl]-N-ethyl-3-(methylsulfonyl) propanamide] here?
**A.** Its value is “not a difference in the effect”.

**Q.** And the “Trt Least Squares Means” value ([4]; 0.25 g/ha)?
**A.** The value was 0.502.

**Q.** What about the “Effect … compared with the amorphous oil” value ([4]; 2.5 g/ha) of the same compound?
**A.** The value was “more affected than insects exposed to the amorphous oil”.

**Q.** And the “Trt Least Squares Means” value ([4]; 2.5 g/ha)?
**A.** The value was 0.156.

**Q.** What about the “Effect … compared with the amorphous oil” value ([4]; 25 g/ha) of the same compound?
**A.** The value was “no difference in the effect”.

**Q.** What about the “Trt Least Squares Means” value ([4]; 25 g/ha) of the same compound?
**A.** Its value is 0.115.

**Q.** What about the “Effect … compared with the amorphous oil” value ([2]; 0.25 g/ha) of the same compound?
**A.** The value was “more negatively affected than those exposed to the amorphous oil”.

**Q.** What about the “Trt Least Squares Means” value ([2]; 0.25 g/ha) of the same compound?
**A.** The value was 0.345.

**Q.** And the “Effect … compared with the amorphous oil” value ([2]; 2.5 g/ha)?
**A.** The value was “significantly affected when compared directly to the amorphous oil”.

**Q.** What about the “Trt Least Squares Means” value ([2]; 2.5 g/ha) of the same compound?
**A.** Its value is 0.079.

**Q.** What about the “Effect … compared with the amorphous oil” value ([2]; 25 g/ha) of the same compound?
**A.** Its value is “not a difference in the effect”.

**Q.** What about the “Trt Least Squares Means” value ([2]; 25 g/ha) of the same compound?
**A.** The value was 0.013.

**Q.** What about the “Polymorphic form after the air milling process (PXRD)” value [3] of the same compound?
**A.** Its value is “unchanged”.

**Q.** Which results are given for CCN(C(=O)CCS(C)(=O)=O)c1sc(-c2cccnc2)nc1Cl [amorphous oil, N-[4-chloro-2-(pyridin-3-yl)-1,3-thiazol-5-yl]-N-ethyl-3-(methylsulfonyl) propanamide, reference compound]?
**A.** Trt Least Squares Means (proportion scale) Mean: proportion of insects above the 2 cm line ([4]; 0.25 g/ha): 0.295; Trt Least Squares Means (proportion scale) Mean: proportion of insects above the 2 cm line ([4]; 2.5 g/ha): 0.326; Trt Least Squares Means (proportion scale) Mean: proportion of insects above the 2 cm line ([4]; 25 g/ha): 0.167; Trt Least Squares Means (proportion scale) Mean: proportion of insects above the 2 cm line ([2]; 0.25 g/ha): 0.601; Trt Least Squares Means (proportion scale) Mean: proportion of insects above the 2 cm line ([2]; 2.5 g/ha): 0.453; Trt Least Squares Means (proportion scale) Mean: proportion of insects above the 2 cm line ([2]; 25 g/ha): 0.029
